From patent US9216981B2, “Purinylpyridinylamino-2,4-difluorophenyl sulfonamide derivative, pharmaceutically acceptable salt thereof, preparation method thereof, and pharmaceutical composition with inhibitory activity against Raf kinase, containing same as active ingredient” (Medpacto, Inc., priority 2010, dated 2015)

Experiments:
B-Raf = B-Raf (Homo sapiens (Human), UniProt P15056); test: B-Raf kinase activity (B-Raf/MEK1/MAPK2 cascade, MBP phosphorylation, [γ-32P]ATP); format: biochemical; conditions: activated B-Raf, inactivated MEK1, inactivated MAPK2, 30° C., 30 minutes, read-out: B-Raf Enzyme Activity
Method: To check the B-Raf kinase inhibitory activity of the compounds of the present invention, the following experiments were conducted.
20 μl of diluting solvent (20 mM MOPS, pH 7.2, 25 mM β-glycerol phosphate, 5 mM EGTA, 1 mM sodium orthovanadate, 1 mM dithiothreitol) and 10 μl of Mg/ATP mixed solution (500 μM ATP, 75 mM magnesium chloride) were added into a centrifuge tube, the derivative compound of Formula 1 was added or the compounds of the Examples were not added as a control group, and then 1 ng of activated B-Raf, 0.4 ng of inactivated MEK1, and 1 μg of inactivated MAPK2 were added. The solutions in the tube were collected on the bottom via centrifugation and were reacted at 30° C. for 30 minutes. After taking 4 μl of the mixed solution, the test proceeded to the next step.
(2) Phosphorylation of Matrix Protein MBP by MAPK2
10 μl of diluting solvent, 20 μg of MBP used as a matrix, and 10 μl of diluted [γ-32P]ATP (1 μCi/μL) were added into the 4 μl of the mixed solution obtained from (1). The solutions in the tube were collected on the bottom via centrifugation and were reacted at 30° C. for 30 minutes. And 25 μl of the reacted solution was put carefully on the center of a filter paper (2 cm×2 cm P81) for 30 seconds. Afterwards, the filter paper was cleaned with 0.75% phosphoric acid for 10 minutes three times and with acetone for 5 minutes one time. The filter paper was then moved to a scintillation vial and 5 ml of scintillation cocktail was added thereto. The inhibition rate (IC50) over B-Raf activity was measured by reading radioactivity through a scintillation counter while comparing to the control group.

A375P cell line = test: B-Raf cell activity inhibition (A375P growth inhibition, MTT assay); format: cell-based; conditions: A375P human melanoma, V600E mutant of B-Raf, 72 hours
Method: To check the B-Raf cell activity inhibitory capability of the compounds of the present invention, the following experiments were conducted in A375P cell line (ATCC). […] A375 cell was maintained in DMEM supplemented with 10% fetal bovine serum, glutamine (2 mM), penicillin (100 U/mL), and streptomycin (100 μg/mL). The cell was maintained at 37° C., and in 5% CO2 and 100% humidity. To conduct the growth inhibition test, the cell was plated by using a white 384-well microplate, with 1000 cells/20 μl plated per 1 well. After 24 hours, 5 μl of 5× stock solution of drug was added. All the drugs were initially prepared with 200× stock solution in DMSO, and the final concentration of DMSO was 0.5%. The cell was incubated at 37° C. for 72 hours. For MTT assay, ‘CellTiter 96 (R) Non-Radioactive Cell Proliferation Assay (G4100)’ kit by Promega Corp. was used. 15 μl of dye solution of the Promega kit was put into each well and was cultured in the incubator for 4 hours. And 100 μl of each Solubilization/Stop Solution substance of the kit was added and fixed in the incubator for 24 hours again. And then, absorbance was measured by using a 96-well plate reader with 570 nm of absorbance.

Chain of B-Raf (P15056 whole entry): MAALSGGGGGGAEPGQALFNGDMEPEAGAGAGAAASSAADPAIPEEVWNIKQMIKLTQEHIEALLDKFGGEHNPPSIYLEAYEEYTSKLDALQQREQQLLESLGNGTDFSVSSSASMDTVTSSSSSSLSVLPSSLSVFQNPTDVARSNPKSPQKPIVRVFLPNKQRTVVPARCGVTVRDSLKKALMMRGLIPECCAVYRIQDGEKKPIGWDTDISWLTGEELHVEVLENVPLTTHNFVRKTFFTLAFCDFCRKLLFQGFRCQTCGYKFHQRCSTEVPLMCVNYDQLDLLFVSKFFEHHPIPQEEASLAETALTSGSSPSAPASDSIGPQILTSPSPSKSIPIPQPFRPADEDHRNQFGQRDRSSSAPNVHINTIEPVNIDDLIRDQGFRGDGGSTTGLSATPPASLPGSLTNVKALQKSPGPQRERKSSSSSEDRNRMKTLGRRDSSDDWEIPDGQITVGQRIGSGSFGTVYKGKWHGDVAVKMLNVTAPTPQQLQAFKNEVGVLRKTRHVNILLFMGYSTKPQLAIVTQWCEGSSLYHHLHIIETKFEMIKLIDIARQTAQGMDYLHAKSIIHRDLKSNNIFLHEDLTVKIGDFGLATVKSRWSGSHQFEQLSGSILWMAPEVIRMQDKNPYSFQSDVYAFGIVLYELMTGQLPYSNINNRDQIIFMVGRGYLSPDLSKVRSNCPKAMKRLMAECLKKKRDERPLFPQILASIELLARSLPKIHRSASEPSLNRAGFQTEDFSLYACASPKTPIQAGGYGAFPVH

Row | SMILES | IC50 (B-Raf) | IC50 (A375P cell line)
1 | O=S(=O)(Nc1ccc(F)c(Nc2ncccc2-c2ncnc3[nH]cnc23)c1F)c1cccc(C(F)(F)F)c1 [Example 2, N-(3-(3-(9H-purin-6-yl)pyridin-2-ylamino)-2,4-difluorophenyl)-3-(trifluoromethyl)benzenesulfonamide] | 8.8 nM | 230 nM
2 | Cc1nc2ccc(S(=O)(=O)Nc3ccc(F)c(Nc4ncccc4-c4ncnc5[nH]cnc45)c3F)cc2s1 [Example 39, N-(3-(3-(9H-purin-6-yl)pyridin-2-ylamino)-2,4-difluorophenyl)-2-methylbenzo[d]thiazole-6-sulfonamide] | 400 nM | 2930 nM
3 | O=S(=O)(Nc1ccc(F)c(Nc2ncccc2-c2ncnc3[nH]cnc23)c1F)c1ccc(F)c(Cl)c1 [Example 28, N-(3-(3-(9H-purin-6-yl)pyridin-2-ylamino)-2,4-difluorophenyl)-3-chloro-4-fluorobenzenesulfonamide] | 300 nM | 1930 nM
4 | Cc1cc(S(=O)(=O)Nc2ccc(F)c(Nc3ncccc3-c3ncnc4[nH]cnc34)c2F)c(C)o1 [Example 25, N-(3-(3-(9H-purin-6-yl)pyridin-2-ylamino)-2,4-difluorophenyl)-2,5-dimethylfuran-3-sulfonamide] | 15 nM | 100 nM
5 | O=S(=O)(Nc1ccc(F)c(Nc2ncccc2-c2ncnc3[nH]cnc23)c1F)c1ccccc1Cl [Example 32, N-(3-(3-(9H-purin-6-yl)pyridin-2-ylamino)-2,4-difluorophenyl)-2-chloro benzenesulfonamide] | 30 nM | 440 nM
6 | COc1ccc(S(=O)(=O)Nc2ccc(F)c(Nc3ncccc3-c3ncnc4[nH]cnc34)c2F)cc1OC [Example 10, N-(3-(3-(9H-purin-6-yl)pyridin-2-ylamino)-2,4-difluorophenyl)-3,4-dimethoxybenzenesulfonamide] | 1200 nM | 10200 nM
7 | Cc1nc(C)c(S(=O)(=O)Nc2ccc(F)c(Nc3ncccc3-c3ncnc4[nH]cnc34)c2F)s1 [Example 20, N-(3-(3-(9H-purin-6-yl)pyridin-2-ylamino)-2,4-difluorophenyl)-2,4-dimethylthiazole-5-sulfonamide] | 160 nM | 700 nM

The remaining compounds from weak to strong by IC50 (B-Raf), led by results:

Row | IC50 (B-Raf) | IC50 (A375P cell line) | SMILES
8 | 1800 nM | 1000 nM | Cn1cnc(S(=O)(=O)Nc2ccc(F)c(Nc3ncccc3-c3ncnc4[nH]cnc34)c2F)c1 [Example 22, N-(3-(3-(9H-purin-6-yl)pyridin-2-ylamino)-2,4-difluorophenyl)-1-methyl-1-imidazole-4-sulfonamide]
9 | 1500 nM | 9600 nM | COC(=O)c1sccc1S(=O)(=O)Nc1ccc(F)c(Nc2ncccc2-c2ncnc3[nH]cnc23)c1F [Example 16, Methyl-3-(N-(3-(3-(9H-purin-6-yl)pyridin-2-ylamino)-2,4-difluorophenyl)sulfamoyl)thiophene-2-carboxylate]
10 | 1020 nM | 8370 nM | O=S(=O)(Nc1ccc(F)c(Nc2ncccc2-c2ncnc3[nH]cnc23)c1F)c1cccc2c1OCC2 [Example 36, N-(3-(3-(9H-purin-6-yl)pyridin-2-ylamino)-2,4-difluorophenyl)-2,3-dihydrobenzofuran-7-sulfonamide]
11 | 832 nM | 4300 nM | O=S(=O)(Nc1ccc(F)c(Nc2ncccc2-c2ncnc3[nH]cnc23)c1F)c1cc2ccccc2o1 [Example 7, N-(3-(3-(9H-purin-6-yl)pyridin-2-ylamino)-2,4-difluorophenyl)benzofuran-2-sulfonamide]
12 | 720 nM | 2800 nM | O=S(=O)(Nc1ccc(F)c(Nc2ncccc2-c2ncnc3[nH]cnc23)c1F)c1ccc(Cl)c(Cl)c1 [Example 6, N-(3-(3-(9H-purin-6-yl)pyridin-2-ylamino)-2,4-difluorophenyl)-3,4-dichlorobenzenesulfonamide]
13 | 610 nM | 600 nM | O=S(=O)(Nc1ccc(F)c(Nc2ncccc2-c2ncnc3[nH]cnc23)c1F)c1ccc(OC(F)(F)F)cc1 [Example 12, N-(3-(3-(9H-purin-6-yl)pyridin-2-ylamino)-2,4-difluorophenyl)-4-(trifluoromethoxy)benzenesulfonamide]
14 | 420 nM | 150 nM | O=S(=O)(Nc1ccc(F)c(Nc2ncccc2-c2ncnc3[nH]cnc23)c1F)c1ccc(F)cc1C(F)(F)F [Example 13, N-(3-(3-(9H-purin-6-yl)pyridin-2-ylamino)-2,4-difluorophenyl)-4-fluoro-2-(trifluoromethyl)benzenesulfonamide]
15 | 1 nM | 2 nM | O=S(=O)(Nc1ccc(F)c(Nc2ncccc2-c2ncnc3[nH]cnc23)c1F)c1ccoc1 [Example 18, N-(3-(3-(9H-purin-6-yl)pyridin-2-ylamino)-2,4-difluorophenyl)furan-3-sulfonamide]
